In test [1] the target is T1, Human immunodeficiency virus type 1 integrase (Human immunodeficiency virus 1, UniProt Q7ZJM1). Kind of test: Inhibition of HIV1 integrase-mediated 3'-end processing activity.
The target in test [2] is T1, Human immunodeficiency virus type 1 integrase. Nature of the test: Inhibition of HIV1 integrase strand transfer activity.
Test [3] has as its system Human immunodeficiency virus 1. Nature of the test: Antiviral activity against human immunodeficiency virus 1 in cell culture. The format is functional, organism-based.
The target of test [4] is T1, Human immunodeficiency virus type 1 integrase. Nature of the test: Inhibition of HIV1 integrase.

SMILES strings stand for the structures. pEC50, pIC50: −log10 of the molar value.

T1 sequence (Q7ZJM1 whole entry): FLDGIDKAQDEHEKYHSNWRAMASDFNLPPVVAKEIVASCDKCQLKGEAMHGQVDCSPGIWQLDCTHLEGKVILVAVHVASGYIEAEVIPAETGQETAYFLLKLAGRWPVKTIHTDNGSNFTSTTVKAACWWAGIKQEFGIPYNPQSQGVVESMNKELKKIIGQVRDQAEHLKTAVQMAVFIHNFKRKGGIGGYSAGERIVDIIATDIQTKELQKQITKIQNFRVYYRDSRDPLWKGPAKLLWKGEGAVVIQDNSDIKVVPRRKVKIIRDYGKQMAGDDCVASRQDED

Consider `O=C(O)C(=O)CC(=O)c1cc(OCc2ccccc2)cc(OCc2ccccc2)c1`, for which the pIC50 (commonly the IC50 on a negative log10 scale, so that one unit is a factor of ten) in test [1] is 6.70; in test [2] it was 5.46.
Turning to `COc1cc2c(cc1Cc1cccc(Cl)c1F)c(=O)c(C(=O)O)cn2[C@H](CO)C(C)C`, in test [3], the pEC50 – broadly, the EC50 on a negative log10 scale, so that one unit is a factor of ten – was 9.05.
`COc1cccc(CN(Cc2cccc(OC)c2)c2ccc3nc(N)[nH]c3c2)c1` gave a pIC50 in test [2] of 5.74.
With `N=C(N)c1ccc2cc(C#Cc3cccc(OCc4ccccc4)c3)ccc2c1`, in test [2], the pIC50 was 5.68.
Molecule `N#C/C(=C(/O)C(=O)O)c1cn(-c2ccc(F)cc2)c2ccccc12` gave a pIC50 in test [2] of 5.00. This pIC50 lies 0.68 log units lower than the previous one.
Same read-out and setting: to `CC(C)S(=O)(=O)Nc1ccc2nc(N)[nH]c2c1` belongs 5.59.
Consider `O=C(O)c1cc2cc(O)c(O)cc2[nH]1`, for which the pIC50 in test [4] is greater than 5.00.
Molecule `O=C(c1cc(Cc2ccccc2)cc(CN2CCCS2(=O)=O)c1)c1ncc2cccnc2c1O` had a pIC50 in test [2] of 5.00.
For the molecule `O=C1C(O)=C(O)C(O)=C2CC(O)=CC=CC12` (stereo not given), in test [4], the pIC50 was 5.68.
As to `O=C(CC(=O)c1ccc(Cc2ccc(F)cc2)o1)c1nc[nH]n1`, it took 12 µM to reach the 95% level in test [3] (IC95).
As to `CC(C)(C)C1CCC(C2=NCCc3ccc([C@H]4CC4c4ccc5cc(C(=N)N)ccc5c4)cc32)CC1` (stereo not given in full), the pIC50 in test [2] is 5.47.
As for `O=C(NCc1ccc(F)cc1)c1nc(N2CCCCS2(=O)=O)c2cccnc2c1O`, it took 0.1 µM to reach the 95% level in test [3] (IC95). This counts as sub-micromolar.
Turning to `O=C(/C=C/c1cccn1Cc1ccccc1)CC(=O)C(=O)O`, the pEC50 in test [3] was 5.82.
As to `O=C(O)C(=O)CC(=O)c1cccn1Cc1ccc(F)cc1`, the IC95 – broadly, the concentration at which the effect reaches the 95% level – in test [3] came to 0.1 µM.

The values above are taken from ChEMBL document CHEMBL1140620, “Development of integrase inhibitors for treatment of AIDS: an overview” (Eur J Med Chem, 2007).
